Experimental data as given in patent US12492173B2, “Herbicidal substituted N-tetrazolyl aryl carboxamides” (Bayer Aktiengesellschaft, priority 2019, dated 2025).

Test system: Setaria viridis
Experiment: Post-emergence herbicidal action, SETVI
Type: in vivo
Design: key: % herbicidal action vs untreated; 100 = plants died, 0 = like control
Conditions: Dosage 80 g/ha
Method in brief: (§1)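 Values are visual estimates of herbicidal action, from 0% (as untreated) to 100% (dead), made about 3 weeks after plants at one-leaf stage in sandy loam were sprayed with the formulated compound.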

Row | SMILES | herbicidal action SETVI
1 | CSc1c(C(=O)Nc2nnnn2C)ccc(C(F)F)c1C[S+](C)[O-] (centres unmarked) [Example 1-171] | 100
2 | Cn1nnnc1NC(=O)c1ccc(I)c(CS(C)(=O)=O)c1Cl [Example 1-364] | 100

Same assay, conditions: comparative experiment, post-emergence, 20 g of a.i./ha

Row | SMILES | Herbicidal action against SETVI
3 | CC[S+]([O-])Cc1c(C(F)(F)F)ccc(C(=O)Nc2nnnn2C)c1Br (racemic) [Example 1-384] | 90
4 | CCSCc1c(C(F)(F)F)ccc(C(=O)Nc2nnnn2C)c1Br [Example 1-383] | 90
5 | CCS(=O)(=O)Cc1c(C(F)(F)F)ccc(C(=O)Nc2nnnn2C)c1Br [Example 1-385] | 90

Same assay, conditions: post-emergence, dosage 80 g/ha

Row | SMILES | herbicidal action SETVI [%]
6 | CSCc1c(Cl)ccc(C(=O)Nc2nnnn2C)c1Cl [Example 1-559] | 100
7 | CC[S+]([O-])Cc1c(C(F)(F)F)ccc(C(=O)Nc2nnnn2C)c1Br (racemic) [Example 1-384] | 90
8 | Cn1nnnc1NC(=O)c1ccc(I)c(C[S+](C)[O-])c1Cl (racemic) [Example 1-363] | 100
9 | CCSCc1c(C(F)(F)F)ccc(C(=O)Nc2nnnn2C)c1Br [Example 1-383] | 90
10 | CCSCc1c(C(F)(F)F)ccc(C(=O)Nc2nnnn2C)c1Cl [Example 1-299] | 90
11 | CCCn1nnnc1NC(=O)c1ccc(C(F)(F)F)c(CSCC2CC2)c1Cl [Example 3-314] | 100
12 | Cn1nnnc1NC(=O)c1ccc(C(F)(F)F)c(CS(=O)(=O)C2CC2)c1Cl [Example 1-304] | 90
13 | CCS(=O)(=O)Cc1c(C(F)(F)F)ccc(C(=O)Nc2nnnn2C)c1Br [Example 1-385] | 100

Test system: Matricaria inodora
Experiment: Pre-emergence herbicidal action, MATIN
Type: in vivo
Design: key to Herbicidal action against MATIN: % activity: 100 = plants have died, 0 = like control plants
Conditions: comparative experiment, 20 g of a.i./ha
Method in brief: (§2)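 Application took place on the soil surface immediately after sowing into sandy loam, using aqueous WP or EC preparations with 0.2% wetting agent. Visual percent scoring followed 3 weeks later, untreated pots serving as reference.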

Row | SMILES | Herbicidal action against MATIN
14 | Cn1nnnc1NC(=O)c1ccc(I)c(C[S+](C)[O-])c1Cl (racemic) [Example 1-363] | 90
15 | CCSCc1c(C(F)(F)F)ccc(C(=O)Nc2nnnn2C)c1Cl [Example 1-299] | 90

Same assay, conditions: comparative experiment, 80 g of a.i./ha

Row | SMILES | Herbicidal action against MATIN
16 | CCS(=O)(=O)Cc1c(C(F)(F)F)ccc(C(=O)Nc2nnnn2C)c1Br [Example 1-385] | 100

Same assay, conditions: dosage 320 g/ha

Row | SMILES | herbicidal action MATIN [%]
17 | CSCc1c(Cl)ccc(C(=O)Nc2nnnn2C)c1Cl [Example 1-559] | 90

Same assay, conditions: dosage 320 g/ha, scored visually after 3 weeks vs untreated controls (100% = plants have died)

Row | SMILES | herbicidal activity MATIN [%]
18 | CSc1c(C(=O)Nc2nnnn2C)ccc(C(F)F)c1C[S+](C)[O-] (centres unmarked) [Example 1-171] | 100
19 | CC[S+]([O-])Cc1c(C(F)(F)F)ccc(C(=O)Nc2nnnn2C)c1Br (racemic) [Example 1-384] | 100
20 | Cn1nnnc1NC(=O)c1ccc(I)c(C[S+](C)[O-])c1Cl (racemic) [Example 1-363] | 100
21 | CCSCc1c(C(F)(F)F)ccc(C(=O)Nc2nnnn2C)c1Br [Example 1-383] | 100
22 | Cn1nnnc1NC(=O)c1ccc(I)c(CS(C)(=O)=O)c1Cl [Example 1-364] | 100
23 | CCSCc1c(C(F)(F)F)ccc(C(=O)Nc2nnnn2C)c1Cl [Example 1-299] | 100
24 | CCCn1nnnc1NC(=O)c1ccc(C(F)(F)F)c(CSCC2CC2)c1Cl [Example 3-314] | 100
25 | Cn1nnnc1NC(=O)c1ccc(C(F)(F)F)c(CS(=O)(=O)C2CC2)c1Cl [Example 1-304] | 100
26 | CCS(=O)(=O)Cc1c(C(F)(F)F)ccc(C(=O)Nc2nnnn2C)c1Br [Example 1-385] | 100

Test system: Alopecurus myosuroides
Experiment: Post-emergence herbicidal action, ALOMY
Type: in vivo
Design: key: % herbicidal action vs untreated; 100 = plants died, 0 = like control
Conditions: Dosage 80 g/ha
Method in brief: as §1

Row | SMILES | herbicidal action ALOMY
27 | CSc1c(C(=O)Nc2nnnn2C)ccc(C(F)F)c1C[S+](C)[O-] (centres unmarked) [Example 1-171] | 80
28 | Cn1nnnc1NC(=O)c1ccc(I)c(CS(C)(=O)=O)c1Cl [Example 1-364] | 90

Same assay, conditions: comparative experiment, post-emergence, 5 g of a.i./ha

Row | SMILES | Herbicidal action against ALOMY
29 | CCSCc1c(C(F)(F)F)ccc(C(=O)Nc2nnnn2C)c1Cl [Example 1-299] | 70

Same assay, conditions: comparative experiment, post-emergence, 20 g of a.i./ha

Row | SMILES | Herbicidal action against ALOMY
30 | CCSCc1c(C(F)(F)F)ccc(C(=O)Nc2nnnn2C)c1Br [Example 1-383] | 80
31 | CCS(=O)(=O)Cc1c(C(F)(F)F)ccc(C(=O)Nc2nnnn2C)c1Br [Example 1-385] | 80

Same assay, conditions: post-emergence, dosage 80 g/ha

Row | SMILES | herbicidal action ALOMY [%]
32 | CSCc1c(Cl)ccc(C(=O)Nc2nnnn2C)c1Cl [Example 1-559] | 90
33 | CC[S+]([O-])Cc1c(C(F)(F)F)ccc(C(=O)Nc2nnnn2C)c1Br (racemic) [Example 1-384] | 90
34 | Cn1nnnc1NC(=O)c1ccc(I)c(C[S+](C)[O-])c1Cl (racemic) [Example 1-363] | 90
35 | CCSCc1c(C(F)(F)F)ccc(C(=O)Nc2nnnn2C)c1Br [Example 1-383] | 100
36 | CCSCc1c(C(F)(F)F)ccc(C(=O)Nc2nnnn2C)c1Cl [Example 1-299] | 90
37 | CCCn1nnnc1NC(=O)c1ccc(C(F)(F)F)c(CSCC2CC2)c1Cl [Example 3-314] | 100
38 | Cn1nnnc1NC(=O)c1ccc(C(F)(F)F)c(CS(=O)(=O)C2CC2)c1Cl [Example 1-304] | 100
39 | CCS(=O)(=O)Cc1c(C(F)(F)F)ccc(C(=O)Nc2nnnn2C)c1Br [Example 1-385] | 90

Test system: Veronica persica
Experiment: Pre-emergence herbicidal action, VERPE
Type: in vivo
Design: key to Herbicidal action against VERPE: % activity: 100 = plants have died, 0 = like control plants
Conditions: comparative experiment, 20 g of a.i./ha
Method in brief: as §2

Row | SMILES | Herbicidal action against VERPE
40 | Cn1nnnc1NC(=O)c1ccc(I)c(CS(C)(=O)=O)c1Cl [Example 1-364] | 100
41 | CCSCc1c(C(F)(F)F)ccc(C(=O)Nc2nnnn2C)c1Cl [Example 1-299] | 100

Same assay, conditions: comparative experiment, 80 g of a.i./ha

Row | SMILES | Herbicidal action against VERPE
42 | CCSCc1c(C(F)(F)F)ccc(C(=O)Nc2nnnn2C)c1Br [Example 1-383] | 100
43 | CCS(=O)(=O)Cc1c(C(F)(F)F)ccc(C(=O)Nc2nnnn2C)c1Br [Example 1-385] | 100

Same assay, conditions: dosage 320 g/ha

Row | SMILES | herbicidal action VERPE [%]
44 | CSCc1c(Cl)ccc(C(=O)Nc2nnnn2C)c1Cl [Example 1-559] | 90

Same assay, conditions: dosage 320 g/ha, scored visually after 3 weeks vs untreated controls (100% = plants have died)

Row | SMILES | herbicidal activity VERPE [%]
45 | CSc1c(C(=O)Nc2nnnn2C)ccc(C(F)F)c1C[S+](C)[O-] (centres unmarked) [Example 1-171] | 100
46 | CC[S+]([O-])Cc1c(C(F)(F)F)ccc(C(=O)Nc2nnnn2C)c1Br (racemic) [Example 1-384] | 100
47 | Cn1nnnc1NC(=O)c1ccc(I)c(C[S+](C)[O-])c1Cl (racemic) [Example 1-363] | 100
48 | CCSCc1c(C(F)(F)F)ccc(C(=O)Nc2nnnn2C)c1Br [Example 1-383] | 100
49 | Cn1nnnc1NC(=O)c1ccc(I)c(CS(C)(=O)=O)c1Cl [Example 1-364] | 100
50 | CCSCc1c(C(F)(F)F)ccc(C(=O)Nc2nnnn2C)c1Cl [Example 1-299] | 100
51 | CCCn1nnnc1NC(=O)c1ccc(C(F)(F)F)c(CSCC2CC2)c1Cl [Example 3-314] | 100
52 | Cn1nnnc1NC(=O)c1ccc(C(F)(F)F)c(CS(=O)(=O)C2CC2)c1Cl [Example 1-304] | 100
53 | CCS(=O)(=O)Cc1c(C(F)(F)F)ccc(C(=O)Nc2nnnn2C)c1Br [Example 1-385] | 100

Test system: Abutilon theophrasti
Experiment: Post-emergence herbicidal action, ABUTH
Type: in vivo
Design: key: % herbicidal action vs untreated; 100 = plants died, 0 = like control
Conditions: Dosage 80 g/ha
Method in brief: as §1

Row | SMILES | herbicidal action ABUTH
54 | CSc1c(C(=O)Nc2nnnn2C)ccc(C(F)F)c1C[S+](C)[O-] (centres unmarked) [Example 1-171] | 100
55 | Cn1nnnc1NC(=O)c1ccc(I)c(CS(C)(=O)=O)c1Cl [Example 1-364] | 100

Same assay, conditions: comparative experiment, post-emergence, 20 g of a.i./ha

Row | SMILES | Herbicidal action against ABUTH
56 | CC[S+]([O-])Cc1c(C(F)(F)F)ccc(C(=O)Nc2nnnn2C)c1Br (racemic) [Example 1-384] | 90
57 | CCSCc1c(C(F)(F)F)ccc(C(=O)Nc2nnnn2C)c1Br [Example 1-383] | 90

Same assay, conditions: post-emergence, dosage 80 g/ha

Row | SMILES | herbicidal action ABUTH [%]
58 | CSCc1c(Cl)ccc(C(=O)Nc2nnnn2C)c1Cl [Example 1-559] | 90
59 | CC[S+]([O-])Cc1c(C(F)(F)F)ccc(C(=O)Nc2nnnn2C)c1Br (racemic) [Example 1-384] | 100
60 | Cn1nnnc1NC(=O)c1ccc(I)c(C[S+](C)[O-])c1Cl (racemic) [Example 1-363] | 100
61 | CCSCc1c(C(F)(F)F)ccc(C(=O)Nc2nnnn2C)c1Br [Example 1-383] | 100
62 | CCSCc1c(C(F)(F)F)ccc(C(=O)Nc2nnnn2C)c1Cl [Example 1-299] | 100
63 | CCCn1nnnc1NC(=O)c1ccc(C(F)(F)F)c(CSCC2CC2)c1Cl [Example 3-314] | 100
64 | Cn1nnnc1NC(=O)c1ccc(C(F)(F)F)c(CS(=O)(=O)C2CC2)c1Cl [Example 1-304] | 100
65 | CCS(=O)(=O)Cc1c(C(F)(F)F)ccc(C(=O)Nc2nnnn2C)c1Br [Example 1-385] | 100

Test system: Echinochloa crus-galli
Experiment: Post-emergence herbicidal action, ECHCG
Type: in vivo
Design: key: % herbicidal action vs untreated; 100 = plants died, 0 = like control
Conditions: Dosage 80 g/ha
Method in brief: as §1

Row | SMILES | herbicidal action ECHCG
66 | CSc1c(C(=O)Nc2nnnn2C)ccc(C(F)F)c1C[S+](C)[O-] (centres unmarked) [Example 1-171] | 100
67 | Cn1nnnc1NC(=O)c1ccc(I)c(CS(C)(=O)=O)c1Cl [Example 1-364] | 100

Same assay, conditions: comparative experiment, post-emergence, 20 g of a.i./ha

Row | SMILES | Herbicidal action against ECHCG
68 | CC[S+]([O-])Cc1c(C(F)(F)F)ccc(C(=O)Nc2nnnn2C)c1Br (racemic) [Example 1-384] | 90
69 | CCS(=O)(=O)Cc1c(C(F)(F)F)ccc(C(=O)Nc2nnnn2C)c1Br [Example 1-385] | 90

Same assay, conditions: post-emergence, dosage 80 g/ha

Row | SMILES | herbicidal action ECHCG [%]
70 | CSCc1c(Cl)ccc(C(=O)Nc2nnnn2C)c1Cl [Example 1-559] | 100
71 | CC[S+]([O-])Cc1c(C(F)(F)F)ccc(C(=O)Nc2nnnn2C)c1Br (racemic) [Example 1-384] | 100
72 | Cn1nnnc1NC(=O)c1ccc(I)c(C[S+](C)[O-])c1Cl (racemic) [Example 1-363] | 100
73 | CCSCc1c(C(F)(F)F)ccc(C(=O)Nc2nnnn2C)c1Br [Example 1-383] | 90
74 | CCSCc1c(C(F)(F)F)ccc(C(=O)Nc2nnnn2C)c1Cl [Example 1-299] | 90
75 | CCCn1nnnc1NC(=O)c1ccc(C(F)(F)F)c(CSCC2CC2)c1Cl [Example 3-314] | 100
76 | Cn1nnnc1NC(=O)c1ccc(C(F)(F)F)c(CS(=O)(=O)C2CC2)c1Cl [Example 1-304] | 100
77 | CCS(=O)(=O)Cc1c(C(F)(F)F)ccc(C(=O)Nc2nnnn2C)c1Br [Example 1-385] | 90
